Assays:
[1] = Partitioning of DCOIT between polymer and supernatant of the treatment solution (centrifugation, HPLC); assay type: physicochemical; settings: treatment solution (1500 ppm DCOIT) centrifuged at 100,000 RPM for 20 minutes
Procedure: An aliquot of well-mixed sample was weighed into a one-ounce screw cap vial. Into the vial was pipetted 20 mL of methanol. The contents were sonicated for one hour in an ultrasonic bath. The sample was filtered through a 0.2 μm filter into an auto-sampler for analysis. The sample preparation was analyzed using a reverse phase HPLC procedure with UV detection according to the wood analysis method below.
A 3 g sample of as is treatment solution was centrifuged at 10,000 RPM for 10 minutes to precipitate any gelled polymer or other particulates. No solid precipitated. The treatment solution sample was further centrifuged at 100,000 RPM for 20 minutes to precipitated the polymer. The precipitated polymer plug and the clear supernatant were analyzed for DCOIT by HPLC.

[2] = Leaching assay (modified AWPA E11-97); assay type: physicochemical; settings: 1000 ppm, 3* (30% DCOIT in xylene); no polymer, no added surfactant
Source text: In order to provide long term protection, the preservative needs to “fix” in the wood and not deplete too rapidly by volatilization or by leaching when the wood gets wet. It might be expected that enhanced penetration or enhanced movement of the preservative deep into the wood during treatment might also lead to reduced fixation of the organic wood preservative. However, it was discovered that the polymers used to provide enhanced penetration also effectively fix the organic biocide in the wood. Two different measures of fixation were used, a dislodgeable residue assay and a very aggressive leaching assay. The dislodgeable residue assay measures how much preservative can be removed or dislodged from the surface of the wood. This is a good assay to determine how much preservative is available or has migrated to the surface of the wood. […] All of the polymers provided exceptional control of dislodgeable residues except for one water soluble polymer that probably redissolves under the assay conditions. Another measure of fixation is resistance to leaching. A very aggressive leaching assay, the AWPA E11-97 assay was used. DCOIT is considered a low leaching organic biocide as is seen by the cumulative % of DCOIT leached in Table 6 with the xylene formulation which doesn't contain any added surfactant. Nonionic surfactants can facilitate the leaching of organic preservatives. […]

DCOIT in polymer plug [1]: 38,000 ppm | DCOIT in supernatant [1]: 34 ppm
SMILES: CCCCCCCCn1sc(Cl)c(Cl)c1=O [DCOIT, 4,5-dichloro-2-n-octyl-4-isothiazolin-3-one]
% Biocide Leached (cumulative) [2]: 4.4%
